{"source": "patent US11555072B2", "about": "“A33 antibody compositions and methods of using the same in radioimmunotherapy” (MEMORIAL SLOAN KETTERING CANCER CENTER, priority 2017, dated 2023)", "key": {"[1]": {"test_system": "LS174T tumor", "experiment": "i.p. LS174T-luc tumor model with i.v. activated T cells", "type": "in vivo, mice", "procedure": "(§1) For intraperitoneal (i.p.) tumor models, luciferase expressing LS174T-luc or SW1222-luc cells were resuspended in RPMI medium and injected intraperitoneally into DKO mice. Human effector cells were supplied as activated T cells and injected intravenously. Mice were treated with 2-3 weekly cycles of antibody-T cell-antibody regimen, with each component separated by 3-4 days. Growth of tumors was followed weekly by measuring luminescence signals on an IVIS Spectrum in vivo imaging system ([…]® Inc., Waltham, Mass.) after injection of 3.3 mg/mouse of luciferin. Luminescence was analyzed and quantified using Living Image Software ([…]®-Inc., Waltham, Mass.).\nTo simulate malignant ascites, a common occurrence in colon cancers, luciferase-expressing LS174T cells were planted intraperitoneally into DKO mice. When tumor growth was confirmed by luminescence, mice were randomized into different treatment groups, treated with no antibody group (tumor only), tumor+T cell only group (tumor+ATC), or i.v. huA33-BsAb (7 doses over 3 weeks), plus weekly T cell injections over 3 weeks. Treatment was started on day 5 after tumor implantation. All T cells were injected through retro-orbital route."}, "[2]": {"test_system": "T cells", "experiment": "T cell activation and proliferation assay (CFSE-labeled PBMCs plus tumor cells)", "type": "cell-based, human", "procedure": "T cell proliferation assay. Fresh PBMCs from healthy donors were labeled with […] CFSE (Life Technologies Corp., Carlsbad, Calif.) for 5 min at room temperature, followed by neutralization using PBS containing 5% FBS. Target cells were then incubated with labeled PBMCs under different conditions at 37° C. before analyzing the expression of surface activation markers and T cell proliferation at 24 hours and 96 hours.\nHuA33-BsAb activated and induced cell cycle entry of fresh T cells."}, "[3]": {"test_system": "SW1222 tumor", "experiment": "i.p. SW1222 tumor model with i.v. T cells", "type": "in vivo, mice", "conditions": "6 doses i.v. over 3 weeks, T cells weekly over 2 weeks", "procedure": "as §1\nFor the SW1222 cell line, tumors were planted intraperitoneally and treated with 6 doses of i.v. antibody over 3 weeks, and i.v. T cell weekly over 2 weeks. […] It is anticipated that additional treatment cycles will completely eradicate the growth of tumors, as in subcutaneous models."}, "[4]": {"test_system": "Colo205 cells", "experiment": "TDCC assay with sorted fresh T cell subsets", "type": "cell-based, human", "procedure": "T-cell dependent cytotoxicity (TDCC) assays. Cytotoxicity assays were performed using both ^51Cr-release assay and Pierce LDH-release assay (Thermo Fisher Scientific, Cambridge, Mass.). For both assays, T cells activated by exposure to anti-CD3/anti-CD28 Dynabeads for 14 days were subsequently used as effector cells, excepted for sorted cells from PBMCs, which were used for TDCC assay without prior stimulation. ^51Cr assay was performed as previously described in Cheng M et al., International Journal of Cancer 136:476-486 (2015). LDH assay was conducted according to the manufacturer's instructions with the following modifications. Briefly, for each assay well of a 96-well round-bottom plate, 1.5×10^4 target cells were incubated with variable number of effector cells, depending on the intended E:T ratios. […] Each condition was done in triplicates. Supernatant was then transferred to a flat bottom plate with reaction substrate and incubated for 30 min before reading at 490 nm, with 680 nm as a reference wavelength. EC50 values were calculated by fitting the curves to a 4-parameter nonlinear regression model using GraphPad Prism.\nTo determine which subsets of T cells were mobilized by huA33-BsAb, CD45RA(+)CD62L(+) and CD45RA(−)CD45RO(+)CD62L(−) memory subsets from both CD4(+) and CD8(+) T cells were sorted. […]"}, "[5]": {"experiment": "SEC-HPLC stability test (37° C. incubation, freeze-thaw)", "type": "physicochemical", "procedure": "SEC-HPLC analysis. Size and purity of huA33-BsAb was analyzed using HPLC system (Shimadzu Scientific Instruments Inc., Columbia, Md.). Monomeric species were identified using a molecular weight standard (Bio-Rad Laboratories, Hercules, Calif.) and percent monomer was calculated based on the relative area under curve (AUC) of different non-buffer peaks.\nThe huA33 antibody was reformatted into bispecific format by fusing scFv of humanized OKT3 to the C-terminus of light chain via a flexible GS linker (FIG. 1(A)). The DNA construct was used to establish a CHO-S stable cell line and huA33-BsAb was purified from the supernatant. Protein yield using protein A chromatography was 50 mg/L to 100 mg/L without extensive optimization. Similar yields were observed using EXPI293™ transient expression system (data not shown). One-step protein A purification routinely produced protein with purity above 90%, as measured by SEC-HPLC."}, "[6]": {"test_system": "GPA33-expressing cancer cells", "experiment": "T-cell dependent cytotoxicity (TDCC) assay with activated T cells", "type": "cell-based, human", "procedure": "T-cell dependent cytotoxicity (TDCC) assays. Cytotoxicity assays were performed using both ^51Cr-release assay and Pierce LDH-release assay (Thermo Fisher Scientific, Cambridge, Mass.). For both assays, T cells activated by exposure to anti-CD3/anti-CD28 Dynabeads for 14 days were subsequently used as effector cells, excepted for sorted cells from PBMCs, which were used for TDCC assay without prior stimulation. ^51Cr assay was performed as previously described in Cheng M et al., International Journal of Cancer 136:476-486 (2015). LDH assay was conducted according to the manufacturer's instructions with the following modifications. Briefly, for each assay well of a 96-well round-bottom plate, 1.5×10^4 target cells were incubated with variable number of effector cells, depending on the intended E:T ratios. Antibodies were then added at different dilutions and the plates were incubated at 37° C. for 16 hours. Each condition was done in triplicates. Supernatant was then transferred to a flat bottom plate with reaction substrate and incubated for 30 min before reading at 490 nm, with 680 nm as a reference wavelength. EC50 values were calculated by fitting the curves to a 4-parameter nonlinear regression model using GraphPad Prism.\nCancer cells were incubated with activated T cells at an effector to target ratio of 10:1 in the presence of 10-fold serial dilutions of huA33-BsAb. GPA33(−) melanoma cell line SKMEL5 and […] cell line TC32 were used as negative controls. […] Maximal level of cytotoxicity seemed to correlate with the level of FACS staining (FIG. 1(D) and FIG. 4(A)). Moreover, TDCC induced by huA33-BsAb was potent, with EC50 values in the pM range."}}, "data": [{"substance": "huA33-BsAb: huA33 IgG with humanized OKT3 scFv fused to light chain C-terminus, N297A and K322A; SEQ ID NO: 19 and 21", "values": [{"measurement": "tumor growth in the abdomen", "setting": "[1]; i.v., 7 doses over 3 weeks, weekly T cells", "result": "significantly suppressed metastatic growth of LS174T tumor"}, {"measurement": "time all mice remained alive", "setting": "[1]; without further treatment", "result": "at least 60 days"}, {"measurement": "PD-1 upregulation on T cells", "setting": "[2]; PBMCs + Colo205, 24 and 96 hours", "result": "PD-1 upregulation was observed after 24 hours and persisted until 96 hours"}, {"measurement": "T cell division by CFSE dye dilution", "setting": "[2]; PBMCs + Colo205, 96 hours", "result": "observed in both CD4(+) and CD8(+) T cells after 96 hours"}, {"measurement": "T cell activation (upregulation of CD25 and CD69 markers)", "setting": "[2]; PBMCs + Colo205, E:T 5, 1 μg/ml, 24 hours", "result": "caused activation of both CD4(+) and CD8(+) T cells"}, {"measurement": "T cell activation with GPA33(−) target cells", "setting": "[2]; SKMEL5 target cells, 96 hours", "result": "did not activate T cells"}, {"measurement": "tumor growth and survival", "setting": "[3]", "result": "suppressed tumor growth and significantly prolonged mice survival"}, {"measurement": "CD25 expression on T cells from the TDCC assay", "setting": "[4]; CD45RO+ and CD45RO− fractions, 48 hours", "result": "CD25 expression was upregulated"}, {"measurement": "cytotoxicity by sorted T cell subsets", "setting": "[4]; Colo205, E:T 5:1, 48 hours, LDH assay", "result": "both CD4(+) and CD8(+) memory T cell subsets were capable of inducing cytotoxicity"}, {"measurement": "percentage of monomers after incubation", "setting": "[5]; 37° C. for 4 weeks, SEC-HPLC", "result": "only a minimal decrease in the percentage of monomers"}, {"measurement": "SEC-HPLC profile after freeze-thaw", "setting": "[5]; four cycles of freeze-thaw", "result": "did not cause noticeable changes in SEC-HPLC profile"}, {"measurement": "redirected T cell killing of GPA33-expressing cancer cells", "setting": "[6]; LS174T, SW1222, Colo205, SNU16, activated T cells, E:T 10:1, 16 hours", "result": "specifically kill all GPA33-expressing cancer cells"}, {"measurement": "redirected T cell killing of GPA33(−) control cells", "setting": "[6]; SKMEL5 and TC32, E:T 10:1", "result": "sparing SKMEL5 and TC32"}, {"measurement": "TDCC EC50 values", "setting": "[6]; activated T cells, E:T 10:1", "result": "pM range"}]}]}
